In ChEMBL document CHEMBL3351910, “Two new antioxidant actinosporin analogues from the calcium alginate beads culture of sponge-associated Actinokineospora sp. strain EG49” (Bioorg Med Chem Lett, 2014):
Each block holds one compound with its values, some of them ahead of it. Activity calls are given as the source filed them. No cut-off for these calls is given here.

How the values were obtained:
[1] = Antioxidant activity assessed as ferric ion reducing activity at 2 nM to 200 uM by FRAP assay; assay type: physicochemical; settings: 0.002 µM
HL-60 [2] = test: Protection against H2O2-induced human HL60 cells assessed as reduction in DNA damage at 2.5 uM after 30 mins by comet assay; assay type: functional, cell-based
[3] = Cytotoxicity against human HL60 cells assessed as induction of DNA damage at 1.25 to 10 uM after 24 hrs by fluorescence microscopy; assay type: cell-based; settings: hl-60, 24 h
HL-60 [4] = test: Protection against H2O2-induced human HL60 cells assessed as reduction in DNA damage at 1.25 uM after 30 mins by comet assay; assay type: functional, cell-based
[5] = Cytotoxicity against human HL60 cells assessed as cell viability up to 50 uM after 4 hrs by fluorescence microscopy; assay type: cell-based; settings: hl-60, 4 h
HL-60 [6] = test: Protection against H2O2-induced human HL60 cells assessed as reduction in DNA damage at 10 uM after 30 mins by comet assay; assay type: functional, cell-based
[7] = test system: Trypanosoma brucei brucei; test: Antiparasitic activity against Trypanosoma brucei brucei; assay type: functional, organism-based
[8] = Cytotoxicity against human HL60 cells assessed as cell viability up to 50 uM after 24 hrs by fluorescence microscopy; assay type: cell-based; settings: hl-60, 24 h
HL-60 [9] = test: Protection against H2O2-induced human HL60 cells assessed as reduction in DNA damage at 50 uM after 30 mins by comet assay; assay type: functional, cell-based

Activity [1]: Active
SMILES: Cc1cc(O[C@@H]2O[C@@H](C)[C@H](O)[C@@H](O)[C@H]2O)c2c3c(ccc2c1)C(=O)c1c(O[C@@H]2O[C@@H](C)[C@H](O)[C@@H](O)[C@H]2O)cccc1C3=O
Activity (HL-60 [2]): Active | Activity [3]: Non-toxic | Activity (HL-60 [4]): Active | Activity [5]: Non-toxic | Activity (HL-60 [6]): Active | inhibition [7]: inactive | Activity [8]: Non-toxic

IC50 [7]: 15 µM
SMILES: Cc1cc(O[C@@H]2O[C@@H](C)[C@H](O)[C@@H](O)[C@H]2O)c2c3c(c(O[C@@H]4O[C@@H](C)[C@H](O)[C@@H](O)[C@H]4O)cc2c1)C(=O)c1c(O)cccc1C3=O

SMILES: CC1(C)CC(O)CC(C)(C)N1[O]
Activity (HL-60 [9]): Active

Activity [1]: Active
SMILES: Cc1cc(O[C@@H]2O[C@@H](C)[C@H](O)[C@@H](O)[C@H]2O)c2c3c(c(O)cc2c1)C(=O)c1c(O[C@@H]2O[C@@H](C)[C@H](O)[C@@H](O)[C@H]2O)cccc1C3=O
Activity (HL-60 [2]): Active | Activity [3]: Non-toxic | Activity (HL-60 [4]): Active | Activity [5]: Non-toxic | Activity (HL-60 [6]): Active | inhibition [7]: inactive | Activity [8]: Toxic
